Earlier results in patent US5525603A, “Compositions, methods and kits for potentiating antitumor effect and for treating tumor” (priority 1991, dated 1996).

Key:
[1] = in combination with 5-FU or 5-FU derivative
[2] = tested on: oral cavity, gastrointestinal tissue; details: prolonged presence in the living body, continuous intravenous infusion of 5-FU alone

## O=C(O)c1nc(=O)[nH]c(=O)[nH]1 [oxonic acid]
[1]
  effect on antitumor effect of 5-FU or 5-FU derivative: reduces the antitumor effect of 5-FU or 5-FU derivative
  inhibition of inflammation caused by 5-FU or 5-FU derivative: can inhibit the occurrence of inflammation caused by 5-FU or 5-FU derivative

## O=c1[nH]cc(F)c(=O)[nH]1 [5-FU, 5-fluorouracil]
[2]
  disorder (inflammation) in the oral cavity, gastrointestinal tissue and the like: likely to cause a disorder (inflammation) in the oral cavity, gastrointestinal tissue and the like
